Measured values: patent US20140329863A1 (priority 2011, published 2014)
Converted amounts (≈) assume the structure as drawn.

Tests used:
[1] = tested on: PrP^Sc in nondividing ScN2a-cl3 cells; details: previously demonstrated; cited from earlier work
[2] = tested on: PrP^Sc in dividing ScN2a-cl3 cells; details: previously demonstrated; cited from earlier work
prion-infected mice = details: literature reports; cited from earlier work
[3] = tested on: PrP^Sc in dividing ScN2a-c13 cells; details: HTS of 1,700 FDA-approved drugs
PrP^C in IMR32 cells = type: cell-based, human
[4] = Hepatic microsomal stability, mouse; details: for half-life at 1 μM: CD-1, mouse, pH 7.4
Media solubility = type: physicochemical; details: cell media
Description: To evaluate media solubility, two protocols were followed. In the first, solutions were prepared as described above. After overnight equilibration, samples were centrifuged for 30 min, without filtration, and supernatant analyzed by HPLC/UV/VIS with reference to three standards (5, 100, 250 μM). In the second protocol, turbidimetric analysis, dilutions of the compound of interest were prepared in media with target concentrations of 5, 10, 20, 50, 100, 200 and 300 μM. Media without solute was included for background. These solutions were evaluated using a light scattering technique and a Nepheloskan instrument.

[5] = Hepatic microsomal stability, rat
[6] = Hepatic microsomal stability, human; details: for half-life at 1 μM: human, pH 7.4

SMILES: CCN(CC)CCCC(C)Nc1c2ccc(Cl)cc2nc2ccc(OC)cc12 (stereo not shown) [quinacrine]
- Clearance of PrP^Sc in nondividing prion-infected cells [1]: relatively ineffective
- Clearance of PrP^Sc in dividing cells [2]: rapidly clears dividing cells of PrP^Sc
- effect in prion-infected mice (prion-infected mice): ineffective
- PrP^Sc levels, HTS of FDA-approved drugs [3]: lowered
- PrP^C levels, HTS of FDA-approved drugs (PrP^C in IMR32 cells): lowered

SMILES: COc1ccc(Nc2nc(-c3ccc(OC)c(OC)c3)cs2)nc1 [IND44, [4-(3,4-Dimethoxy-phenyl)-thiazol-2-yl]-(5-methoxy-pyridin-2-yl)-amine]
- half-life at 1 μM ([4]; liver microsomes): 29 min
- half-life at 1 μM ([4]; mouse liver microsomes): 29 min
- % remaining after a 60-min incubation, Mouse ([4]; mouse liver microsomes, 60-min incubation): 24%
- solubility in media (in words) (Media solubility): lower solubility
- solubility in FaSSIF (in words) (fasted-state simulated intestinal fluid): lower solubility
- solubility at pH 2.0 (in words) (pH 2 (HCl) buffer): lower solubility
- solubility at pH 7.4 (in words) (pH 7.4 phosphate buffer): lower solubility
- solubility (physchem; FaSSIF): < 1 µM
- solubility (physchem; cell culture media, plasma or biological fluid): 3 µM (≈ 1.03 µg/mL)
- solubility (physchem; pH 2 (HCl) buffer, pH 2, simulated gastric fluid): 1 µM (≈ 0.343 µg/mL)
- solubility (physchem; pH 7.4 (phosphate) buffer, pH 7.4, aqueous buffer): < 1 µM
- t1/2 in min, Rat ([5]; […]): 45 min
- % remaining after a 60-min incubation, Rat ([5]; […], 60-min incubation): 39%
- t1/2 Rat ([5]; rat microsomes): 45 min
- % remaining after a 60-min incubation, Human ([6]; human liver microsomes, 60-min incubation): 48%
- half-life at 1 μM ([6]; human liver microsomes): 58 min
- half-life at 1 μM ([6]; liver microsomes): 58 min
